Source: patent US20130115322A1, “Therapeutic Compositions and Methods for Treating Cell Dysplasia Using Extracts From Raspberry and Strawberry” (priority 2003, published 2013)

Legend:
[1] = tested on: normal, premalignant and malignant oral epithelial cell lines; assay: Growth and cytotoxicity in oral epithelial cell lines; assay type: cell-based, human
Description: In particular, using a panel of normal, premalignant and malignant oral epithelial cell lines, the cellular (growth inhibiting and cytotoxic) effects of phytochemicals found in black raspberry fractions was determined (i.e., F001, F003, DM, and ME/Et, see FIGS. 2A and 2B).

VEGF = conditions: reported; cited from earlier work
iNOS [2] = molecular target: T1, iNOS (Homo sapiens, UniProt P35228); conditions: cytokine-induced colorectal adenocarcinoma DLD cells; cited from earlier work
T1 construct: its specificity for iNOS was established in cytokine-induced colorectal adenocarcinoma DLD cells; endogenous in cells; host or cells: cytokine-induced colorectal adenocarcinoma DLD cells
T1 sequence (P35228 whole entry): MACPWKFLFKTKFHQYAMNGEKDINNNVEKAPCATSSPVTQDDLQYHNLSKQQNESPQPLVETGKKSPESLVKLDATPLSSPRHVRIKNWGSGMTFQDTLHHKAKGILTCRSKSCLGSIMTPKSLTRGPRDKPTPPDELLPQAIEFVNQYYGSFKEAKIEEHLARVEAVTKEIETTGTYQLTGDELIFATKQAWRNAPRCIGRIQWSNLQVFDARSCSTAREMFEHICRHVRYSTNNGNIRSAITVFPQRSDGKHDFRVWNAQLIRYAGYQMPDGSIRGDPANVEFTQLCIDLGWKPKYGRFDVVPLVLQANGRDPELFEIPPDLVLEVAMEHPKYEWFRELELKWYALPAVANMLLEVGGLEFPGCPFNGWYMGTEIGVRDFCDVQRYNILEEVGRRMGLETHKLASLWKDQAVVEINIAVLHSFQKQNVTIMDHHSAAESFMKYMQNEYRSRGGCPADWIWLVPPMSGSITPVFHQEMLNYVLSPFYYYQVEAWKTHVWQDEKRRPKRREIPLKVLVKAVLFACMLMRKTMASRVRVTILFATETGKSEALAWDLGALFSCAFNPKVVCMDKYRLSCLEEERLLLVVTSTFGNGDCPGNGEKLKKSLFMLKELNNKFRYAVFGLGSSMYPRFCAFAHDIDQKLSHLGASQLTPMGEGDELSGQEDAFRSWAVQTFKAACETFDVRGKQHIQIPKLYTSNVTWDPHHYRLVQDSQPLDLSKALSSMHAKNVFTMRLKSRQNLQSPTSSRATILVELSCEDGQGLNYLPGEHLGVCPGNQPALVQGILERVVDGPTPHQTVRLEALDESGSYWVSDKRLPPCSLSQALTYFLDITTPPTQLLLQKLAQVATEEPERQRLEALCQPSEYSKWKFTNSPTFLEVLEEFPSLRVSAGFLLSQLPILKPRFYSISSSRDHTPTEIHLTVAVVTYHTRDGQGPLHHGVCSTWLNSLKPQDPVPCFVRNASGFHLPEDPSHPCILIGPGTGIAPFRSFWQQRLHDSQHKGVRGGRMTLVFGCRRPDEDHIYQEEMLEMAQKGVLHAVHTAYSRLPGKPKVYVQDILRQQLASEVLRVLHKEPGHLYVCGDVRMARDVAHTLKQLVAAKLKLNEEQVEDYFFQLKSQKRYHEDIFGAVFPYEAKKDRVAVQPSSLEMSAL

[3] = tested on: azoxymethane-induced aberrant crypt foci; conditions: rat colon, Rao et al.; cited from earlier work
NMBA-induced tumors = conditions: Chen et al. 2004; cited from earlier work
COX-2 = COX-2 expression in RE-149 DHD cells; assay type: cell-based, rat; conditions: RE-149 DHD cell lines
Description: (§1) Several BRB extracts and anthocyanins have been administered in JB6 CI 41 mouse epidermal cell lines and RE-149 DHD rat epithelium cancer cell lines, and such model systems are predictive of in vivo biological activity. As further discussed below, the BRB methanol fraction inhibits benzo(a)pyrene-7,8-diol-9,10-epoxide (B(a)PDE)-induced transactivation of transcription factor AP-1 and nuclear factor κB (NFκB, NFKB) activity in JB6 CI 41 cell lines; BRB ethanol extracts inhibited cell proliferation in RE-149 DHD cell lines; and the anthocyanins, cyanidin-3-O-glucoside and cyanidin-3-O-rutinoside derived from BRB ethanol extracts, suppressed the expression of COX-2 and iNOS in RE-149 DHD cell lines. A further embodiment is that even the unpurified components of the BRB ethanol extracts are believed to be safe for human consumption, being derived from a consumable foodstuff using consumable extraction solvents.

iNOS [4] = assay: iNOS expression in RE-149 DHD cells; assay type: cell-based, rat; conditions: RE-149 DHD cell lines
Description: as §1

Structure (SMILES) | angiogenesis by inhibiting VEGF expression (VEGF) | expression of COX-2 (COX-2) | expression of iNOS (iNOS [4]) | further results
O=c1oc2c(O)c(O)cc3c(=O)oc4c(O)c(O)cc1c4c23 [Ellagic acid] | – | – | – | growth of oral cell lines [1]: potent, non-selective, inhibitor
Cc1nc(C2CCCCC2)c(-c2ccc(S(N)(=O)=O)c(F)c2)o1 [JTE-522] | effectively block angiogenesis | – | – | –
CS(=O)(=O)Nc1ccc([N+](=O)[O-])cc1OC1CCCCC1 [NS-398] | effectively block angiogenesis | – | – | –
N=C(N)SCCc1ccc(CCSC(=N)N)cc1 [PBIT, S,S-1,4-phenylene-bis(1,2-ethanediyl)bis-isothiourea] | – | – | – | selectivity for iNOS over endothelial and neuronal NOS (iNOS [2]): selectively inhibit iNOS; aberrant crypt foci formation, crypt multiplicity, and iNOS activity [3]: suppressed; NMBA-induced tumors in the rat esophagus (NMBA-induced tumors): inhibit
OC[C@H]1O[C@@H](Oc2cc3c(O)cc(O)cc3[o+]c2-c2ccc(O)c(O)c2)[C@H](O)[C@@H](O)[C@@H]1O [cyanidin-3-O-glucoside] | – | suppressed | suppressed | –
C[C@@H]1O[C@@H](OC[C@H]2O[C@@H](Oc3cc4c(O)cc(O)cc4[o+]c3-c3ccc(O)c(O)c3)[C@H](O)[C@@H](O)[C@@H]2O)[C@H](O)[C@H](O)[C@H]1O [cyanidin-3-O-rutinoside] | – | suppressed | suppressed | –
